Converted amounts (≈) assume the structure as drawn.
Columns and labels:
Experiment in all cases: Agar Dilution Test (NCCLS), MIC
Assay type in all cases: cell-based
[1] = test system: E. coli strain ATCC 10536; details: Escherichia coli, ATCC10536
Excerpt: (§1) In particular, the active compounds of the invention show antimicrobial, e.g. antibacterial, activity against e.g. gram negative and gram positive bacteria, e.g. […] bacteria such as Pseudomonas, e.g. Pseudomonas aeruginosa; Escherichia, e.g. Escherichia coli; Enterobacter, e.g. Enterobacter cloacae; Klebsiella, e.g. Klebsiella edwardsii, Klebsiella pneumoniae; Enterococcus, e.g. Enterococcus faecalis; Moraxella, e.g. Moraxell catarrhalis; Streptococcus, e.g. Streptococcus pneumoniae, Streptococcus pyogenes; and Staphylococcus, e.g. Staphylococcus aureus; in vitro in the Agar Dilution Test according to National Commitee for Clinical Laboratory Standards (NCCLS) 1993, Document M7-A3Vol.13, No. 25: “Methods for dilution Antimicrobial Susceptibility Tests for Bacteria that Grow Aerobically—Third Edition, Approved Standard”. […] The active compounds of the invention show an surprising overall activity spectrum.

[2] = test system: E. coli strain ATCC 35218; details: Escherichia coli, ATCC35218
Excerpt: as §1

[3] = test system: Enterobacter cloacae strains
Excerpt: as §1

[4] = test system: Klebsiella edwardsii, strain ATCC 10896; details: ATCC10896, Example 48 tested in form of the hydrochloride
Excerpt: as §1

MIC [1] [µg/mL] | MIC [2] [µg/mL] | MIC [3] [µg/mL] | Compound | MIC [4] [µg/mL]
< 0.0125 | < 0.0125 | < 0.0125 | CCN1CCN(N=CC2=C(C(=O)O)N3C(=O)C(NC(=O)/C(=N\OCF)c4nsc(N)n4)[C@H]3SC2)C1=NC (some centres unmarked) [Example 48, 7-{[(5-amino-1,2,4-thiadiazole-3-yl)-(Z)-(fluoromethoxyimino)-acetyl]amino}-3-{[(3-ethyl-2-methylimino-imidazolidine-1-yl)imino]methyl}-3-cephem-4-carboxylic acid] | ~0.8 (≈ 1.44 µM)
 |  |  | CC(C)(O/N=C(\C(=O)N[C@@H]1C(=O)N2C(C(=O)[O-])=C(C[n+]3ccccc3)CS[C@H]12)c1csc(N)n1)C(=O)O [ceftazidime, reference compound] | ~1.6 (≈ 2.93 µM)

— patent publication US6440957B1, “Cephalosporines having cyclic aminoguanidine substituents as antibiotics” (Biochemie Gesellschaft m.b.H., priority 1998, dated 2002)
